# Test results: patent publication US7396837B2, “Antitumoral analogs of lamellarins” (Pharma Mar, S.A.U., priority 2002, dated 2008)
# Like-named read-outs stand apart in the source and are kept apart here.
# How the values were obtained:
# Assay type in all cases: cell-based
# HT-29 = assay: SRB colorimetric cell growth inhibition assay, HT-29; conditions: Homo sapiens, HT-29, HT-29; for GI50: GI=growth inhibition, read-out: GI50 HT-29; for CC50: read-out: LC50 HT-29; for IC (TGI): read-out: TGI HT-29
# Procedure, shortened: (§1)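 Cells are kept under uninterrupted exposure to compound. Staining with sulforhodamine B then measures cell growth and viability. Triplicate data give mean ± SD, from which growth inhibition, total growth inhibition and lethal concentration values follow.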
# LoVo-Dox = assay: SRB colorimetric cell growth inhibition assay, LoVo-Dox (MDR); conditions: Homo sapiens, LOVO-DOX; for GI50: GI=growth inhibition, read-out: GI50 LOVO-DOX; for CC50: read-out: LC50 LOVO-DOX; for IC (TGI): read-out: TGI LOVO-DOX
# Procedure, shortened: as §1
# DU-145 = assay: SRB colorimetric cell growth inhibition assay, DU-145; conditions: Homo sapiens, DU-145, DU-145; for GI50: GI=growth inhibition, read-out: GI50 DU-145; for CC50: LC=cell killing (cytotoxic effect), read-out: LC50 DU-145; for IC (TGI): TGI=total growth inhibition (cytostatic effect), read-out: TGI DU-145
# Procedure, shortened: as §1
# A-549 = assay: SRB colorimetric cell growth inhibition assay, A-549; conditions: Homo sapiens, A549, A-549; for GI50: GI=growth inhibition, read-out: GI50 A-549; for CC50: read-out: LC50 A-549; for IC (TGI): read-out: TGI A-549
# Procedure, shortened: as §1
# IGROV-ET = assay: SRB colorimetric cell growth inhibition assay, IGROV-ET (ET-743 resistant); conditions: Homo sapiens, IGROV-ET; for GI50: GI=growth inhibition, read-out: GI50 IGROV-ET; for CC50: LC=cell killing (cytotoxic effect), read-out: LC50 IGROV-ET; for IC (TGI): TGI=total growth inhibition (cytostatic effect), read-out: TGI IGROV-ET
# Procedure, shortened: as §1
# PANC-1 = assay: SRB colorimetric cell growth inhibition assay, PANC-1; conditions: Homo sapiens, PANC-1, PANC-1; for GI50: GI=growth inhibition, read-out: GI50 PANC-1; for CC50: read-out: LC50 PANC-1; for IC (TGI): read-out: TGI PANC-1
# Procedure, shortened: as §1
# [1] = SRB colorimetric cell growth inhibition assay, H-MEC-1; conditions: human, H-MEC-1 cells, H-MEC-1; LC=cell killing (cytotoxic effect); read-out: LC50 H-MEC-1
# Procedure, shortened: (§2)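 SRB colorimetric readout of cell growth/viability in 96-well format. Means ± SD from triplicate wells; GI (growth inhibition), TGI (total growth inhibition, cytostatic) and LC (cell killing, cytotoxic) parameters derived.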
# H-MEC-1 = assay: as above; conditions: Homo sapiens, HMEC-1, H-MEC-1; for GI50: GI=growth inhibition; for IC (TGI): TGI=total growth inhibition (cytostatic effect), read-out: TGI H-MEC-1
# Procedure, shortened: as §2
# IGROV = assay: SRB colorimetric cell growth inhibition assay, IGROV; conditions: Homo sapiens, IGROV; for GI50: GI=growth inhibition, read-out: GI50 IGROV; for CC50: LC=cell killing (cytotoxic effect), read-out: LC50 IGROV; for IC (TGI): TGI=total growth inhibition (cytostatic effect), read-out: TGI IGROV
# Procedure, shortened: as §1
# SK-MEL-28 = assay: SRB colorimetric cell growth inhibition assay, SK-MEL-28; conditions: Homo sapiens, SK-MEL-28, MEL-28; for GI50: GI=growth inhibition, read-out: GI50 MEL-28; for CC50: LC=cell killing (cytotoxic effect), read-out: LC50 MEL-28; for IC (TGI): TGI=total growth inhibition (cytostatic effect), read-out: TGI MEL-28
# Procedure, shortened: as §1
# LoVo = assay: SRB colorimetric cell growth inhibition assay, LoVo; conditions: Homo sapiens, LoVo; for GI50: GI=growth inhibition, read-out: GI50 LOVO; for CC50: read-out: LC50 LOVO; for IC (TGI): read-out: TGI LOVO
# Procedure, shortened: as §1
# K-562 = assay: SRB colorimetric cell growth inhibition assay, K-562; conditions: Homo sapiens, K562, K-562; for GI50: GI=growth inhibition, read-out: GI50 K-562; for CC50: read-out: LC50 K-562; for IC (TGI): read-out: TGI K-562
# Procedure, shortened: as §1
# LNCaP = assay: SRB colorimetric cell growth inhibition assay, LNCaP; conditions: Homo sapiens, LNCaP, LN-caP; for GI50: GI=growth inhibition, read-out: GI50 LN-caP; for CC50: LC=cell killing (cytotoxic effect), read-out: LC50 LN-caP; for IC (TGI): TGI=total growth inhibition (cytostatic effect), read-out: TGI LN-caP
# Procedure, shortened: as §1
# SKOV-3 = assay: SRB colorimetric cell growth inhibition assay, SKOV-3; conditions: Homo sapiens; for GI50: SK-OV-3, SKOV-3, GI=growth inhibition, read-out: GI50 SKOV-3; for CC50 / IC (TGI): SK-OV-3, SKOV-3; for CC50: LC=cell killing (cytotoxic effect), read-out: LC50 SKOV-3; for IC (TGI): TGI=total growth inhibition (cytostatic effect), read-out: TGI SKOV-3
# Procedure, shortened: as §2
# SK-BR-3 = assay: SRB colorimetric cell growth inhibition assay, SK-BR-3; conditions: Homo sapiens, SK-BR-3, SK-BR-3; for GI50: GI=growth inhibition, read-out: GI50 SK-BR-3; for CC50: LC=cell killing (cytotoxic effect), read-out: LC50 SK-BR-3; for IC (TGI): TGI=total growth inhibition (cytostatic effect), read-out: TGI SK-BR-3
# Procedure, shortened: as §1
# [2] = LC=cell killing (cytotoxic effect)
# [3] = TGI=total growth inhibition (cytostatic effect)
# [4] = cell killing (cytotoxic effect)
# [5] = total growth inhibition (cytostatic effect)
smiles,measurement,setting,value
COc1cc2c(cc1OC)-c1c(-c3ccc(OC(=O)[C@H](Cc4ccccc4)NC(=O)OC(C)(C)C)c(OC)c3)c3c4cc(OC)c(OC(=O)[C@H](Cc5ccccc5)NC(=O)OC(C)(C)C)cc4oc(=O)c3n1CC2 [Compound 84],GI50,HT-29,2.34 µM
same,CC50,HT-29; [2],9.9 µM
same,IC (TGI),HT-29; [3],9.9 µM
same,GI50,LoVo-Dox,9.9 µM
same,CC50,LoVo-Dox; [2],9.9 µM
same,IC (TGI),LoVo-Dox; [3],9.9 µM
same,GI50,DU-145,3.41 µM
same,CC50,DU-145,9.9 µM
same,IC (TGI),DU-145,8.36 µM
same,GI50,A-549,2.66 µM
same,CC50,A-549; [2],9.03 µM
same,IC (TGI),A-549; [3],4.91 µM
same,GI50,IGROV-ET,4.26 µM
same,CC50,IGROV-ET,9.9 µM
same,IC (TGI),IGROV-ET,8.25 µM
same,GI50,PANC-1,0.501 µM
same,CC50,PANC-1; [2],9.9 µM
same,IC (TGI),PANC-1; [3],5.47 µM
same,CC50,[1],5.96 µM
same,GI50,H-MEC-1,0.682 µM
same,IC (TGI),H-MEC-1,1.86 µM
same,GI50,IGROV,2.41 µM
same,CC50,IGROV,9.9 µM
same,IC (TGI),IGROV,6.28 µM
same,GI50,SK-MEL-28,2.07 µM
same,CC50,SK-MEL-28,7.21 µM
same,IC (TGI),SK-MEL-28,3.86 µM
same,GI50,LoVo,4.48 µM
same,CC50,LoVo; [2],9.9 µM
same,IC (TGI),LoVo; [3],9.9 µM
same,GI50,K-562,0.731 µM
same,CC50,K-562; [2],9.9 µM
same,IC (TGI),K-562; [3],3.3 µM
same,GI50,LNCaP,0.71 µM
same,CC50,LNCaP,5.21 µM
same,IC (TGI),LNCaP,2.01 µM
same,GI50,SKOV-3,4.58 µM
same,CC50,SKOV-3,9.9 µM
same,IC (TGI),SKOV-3,9.9 µM
same,GI50,SK-BR-3,0.46 µM
same,CC50,SK-BR-3,9.9 µM
same,IC (TGI),SK-BR-3,0.95 µM
COc1cc2c(cc1OC)-c1c(-c3ccc(OC(=O)CCc4ccccc4)c(OC)c3)c3c4cc(OC)c(OC(=O)CCc5ccccc5)cc4oc(=O)c3n1CC2 [Compound 93],GI50,HT-29,12.8 µM
same,CC50,HT-29; [4],12.8 µM
same,IC (TGI),HT-29; [5],12.8 µM
same,GI50,LoVo-Dox,3.39 µM
same,CC50,LoVo-Dox; [4],12.8 µM
same,IC (TGI),LoVo-Dox; [5],11.7 µM
same,GI50,DU-145,12.8 µM
same,CC50,DU-145,12.8 µM
same,IC (TGI),DU-145,12.8 µM
same,GI50,A-549,8.64 µM
same,CC50,A-549; [4],12.8 µM
same,IC (TGI),A-549; [5],12.8 µM
same,GI50,IGROV-ET,11.7 µM
same,CC50,IGROV-ET,12.8 µM
same,IC (TGI),IGROV-ET,12.8 µM
same,GI50,PANC-1,12.8 µM
same,CC50,PANC-1; [4],12.8 µM
same,IC (TGI),PANC-1; [5],12.8 µM
same,CC50,[1],12.8 µM
same,GI50,H-MEC-1,12.8 µM
same,IC (TGI),H-MEC-1,12.8 µM
same,GI50,IGROV,3.37 µM
same,CC50,IGROV,12.8 µM
same,IC (TGI),IGROV,7.08 µM
same,GI50,SK-MEL-28,4.57 µM
same,CC50,SK-MEL-28,12.8 µM
same,IC (TGI),SK-MEL-28,12.8 µM
same,GI50,LoVo,12.8 µM
same,CC50,LoVo; [4],12.8 µM
same,IC (TGI),LoVo; [5],12.8 µM
same,GI50,K-562,1.62 µM
same,CC50,K-562; [4],4.36 µM
same,IC (TGI),K-562; [5],2.65 µM
same,GI50,LNCaP,0.408 µM
same,CC50,LNCaP,7.08 µM
same,IC (TGI),LNCaP,1.27 µM
same,GI50,SKOV-3,6.26 µM
same,CC50,SKOV-3,12.8 µM
same,IC (TGI),SKOV-3,12.8 µM
same,GI50,SK-BR-3,4.95 µM
same,CC50,SK-BR-3,12.8 µM
same,IC (TGI),SK-BR-3,12.8 µM
